In patent US8747900B2, “Dosage form with improved release of cefuroximaxetil” (Gruenenthal GmbH, priority 2005, dated 2014):

What was measured:
[1] = Solubility / saturation solubility of cefuroximaxetil; format: physicochemical
[2] = cited from earlier work; for Solubility of the active ingredient (dissolved): after 45 minutes, standard method USP 23 page 316
[3] = Relative stability of binary mixtures of the modifications in water; format: physicochemical
[4] = Storage stability of the crystalline modification at elevated temperature; format: physicochemical
Description: The crystalline modification of cefuroximaxetil according to the invention is stable in storage. […] Even after storage for 2 months at 40° C. and 75% rel. atmospheric humidity, the content of the comparatively easily formed Δ^3-degradation product is still below 1.0 wt. %, which is indicative of excellent stability of the modification according to the invention.

## CO/N=C(\C(=O)N[C@@H]1C(=O)N2C(C(=O)OC(C)OC(C)=O)=C(COC(N)=O)CS[C@H]12)c1ccco1 (stereo partly drawn) [Cefuroximaxetil, 1-acetoxyethyl ester of cefuroxime, i.e. of (6R,7R)-3-carbamoyloxymethyl-7-[(Z)-2-(fur-2-yl)-2-methoxyiminoacetamido]ceph-3-em-4-carboxylic acid]
[1]; in the dissolution medium (1000 ml), artificial gastric juice + Tween 80
  Saturation solubility: 600 mg
[1]; largely pH-independent
  Solubility: approx. 0.5 mg/ml

## CO/N=C(\C(=O)N[C@@H]1C(=O)N2C(C(=O)OC(C)OC(C)=O)=C(COC(N)=O)CS[C@H]12)c1ccco1 (stereo partly drawn) [α-modification, cefuroximaxetil]
[2]; minimum: 60% in 15 minutes, 75% within 45 minutes
  Solubility when tested according to USP 23: does not achieve the specified minimum solubility

## CO/N=C(\C(=O)N[C@@H]1C(=O)N2C(C(=O)OC(C)OC(C)=O)=C(COC(N)=O)CS[C@H]12)c1ccco1 (stereo partly drawn) [β-modification, cefuroximaxetil]
[2]
  Solubility of the active ingredient (dissolved): over 40%

## CO/N=C(\C(=O)N[C@@H]1C(=O)N2C(C(=O)OC(C)OC(C)=O)=C(COC(N)=O)CS[C@H]12)c1ccco1 (some centres unmarked) [γ-modification, cefuroximaxetil]
[2]
  Solubility of the active ingredient (dissolved): 73.0%

## CO/N=C(\C(=O)N[C@@H]1C(=O)N2C(C(=O)OC(C)OC(C)=O)=C(COC(N)=O)CS[C@H]12)c1ccco1 (some centres unmarked) [δ-modification, cefuroximaxetil]
[3]
  Stability relative to the α-, β- and γ-modification: stabler
[4]; after storage at elevated temperature
  Change to the composition, chemically (decomposition products) or physically (solubility, X-ray diffractogram): no significant change
[4]; after storage for 2 months at 40° C. and 75% rel. atmospheric humidity
  Content of Δ^3-degradation product: below 1.0 wt. %
